{"source": "paper PMC8410599", "about": "“The structural basis of odorant recognition in insect olfactory receptors” (Nature, 2021)", "key": {"MhOR5": {"target": "T1, MhOR5 (Machilis hrabei, UniProt Z9G0B3H7M0)", "T1 construct": "Lys2-Pro474; cryo-EM: N-terminal Strep II-sfGFP cleaved with HRV 3C, HEK293S GnTI-; calcium assay: pME18s vector without fluorescent marker, HEK293 with GCaMP6s; homotetramer", "T1 sequence (Z9G0B3H7M0 6-478)": "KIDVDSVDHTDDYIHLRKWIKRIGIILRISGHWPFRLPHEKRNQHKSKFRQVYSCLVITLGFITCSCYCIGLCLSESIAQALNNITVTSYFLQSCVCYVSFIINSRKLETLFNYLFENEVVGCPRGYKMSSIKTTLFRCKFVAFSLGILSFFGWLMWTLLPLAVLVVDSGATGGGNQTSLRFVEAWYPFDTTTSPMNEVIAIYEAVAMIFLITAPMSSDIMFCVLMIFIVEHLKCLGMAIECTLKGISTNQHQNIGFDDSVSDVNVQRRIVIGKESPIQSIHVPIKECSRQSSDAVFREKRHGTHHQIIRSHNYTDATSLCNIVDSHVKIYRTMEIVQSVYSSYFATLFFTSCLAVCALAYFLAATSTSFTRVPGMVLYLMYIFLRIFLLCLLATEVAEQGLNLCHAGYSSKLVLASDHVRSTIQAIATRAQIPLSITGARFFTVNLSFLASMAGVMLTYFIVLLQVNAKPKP", "experiment": "GCaMP6s calcium flux, HEK293", "type": "cell-based", "settings": "agonist, sub-maximal efficacy; 2 mM CaCl2, pH 7.4"}, "Orco [1]": {"target": "T2, Orco (Apocrypta bakeri, UniProt B0FAQ4)", "T2 construct": "gene Or2; expressed in HEK293 cells with GCaMP6s; homotetramer", "T2 sequence (B0FAQ4 1-474)": "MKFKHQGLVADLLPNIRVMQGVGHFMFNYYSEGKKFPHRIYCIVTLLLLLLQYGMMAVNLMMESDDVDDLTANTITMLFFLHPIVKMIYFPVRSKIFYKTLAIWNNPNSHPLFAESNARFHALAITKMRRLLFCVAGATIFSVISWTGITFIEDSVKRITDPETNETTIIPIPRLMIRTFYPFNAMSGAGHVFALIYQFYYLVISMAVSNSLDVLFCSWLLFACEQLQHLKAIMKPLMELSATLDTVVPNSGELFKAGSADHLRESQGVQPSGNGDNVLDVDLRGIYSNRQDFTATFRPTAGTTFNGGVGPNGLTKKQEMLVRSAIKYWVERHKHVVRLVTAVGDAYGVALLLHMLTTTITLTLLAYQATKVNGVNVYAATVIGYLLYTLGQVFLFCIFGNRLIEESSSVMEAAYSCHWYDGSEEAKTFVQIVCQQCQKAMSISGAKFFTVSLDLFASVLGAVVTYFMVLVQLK", "experiment": "cell-based", "design": "species or system HEK293; GCaMP6s calcium fluorescence dose-response of olfactory receptor channel expressed in HEK293 cells", "procedure": "(§1) Seven ligand concentrations were used for each transfection condition in sequential dilutions of 3, alongside a control well of only reading buffer. Ligands were dissolved in DMSO to 150 mM, then diluted with reading buffer to a highest final-well concentration of 0.5 mM (DMSO never exceeded 0.5%). Water-soluble ligands (arabinose, caffeine, denatonium, glucose, MSG, sucrose) were dissolved directly into reading buffer. If experimental data indicated a more sensitive response than this range, the concentration was adjusted accordingly. Ligand concentrations for mutants were the same as for the corresponding wild-type OR. Each plate contained a negative control of GCaMP6s transfected alone and exposed to eugenol for MhOR5 and VUAA1 for Orco experiments. […] A control of DMSO alone was also tested to ensure no activity effects were due to the solvent. Each concentration of ligand was applied to four technical replicates, which were averaged and considered a single biological replicate. The baseline fluorescence (F) was calculated as the average fluorescence of the 30 s before odour was added to the plate. Within each well, ΔF was calculated as the difference between the average of the last 10 s of fluorescence and the baseline F. ΔF/F was then calculated as the ΔF divided by the baseline fluorescence (F). […]"}, "Orco [2]": {"target": "T2, Orco", "experiment": "cell-based", "design": "species or system HEK293; GCaMP6s calcium fluorescence (ΔF/F) dose-response in HEK cells expressing the odorant receptor", "procedure": "as §1"}}, "note": "Where two headings read alike, the source gives them in different places."}
{"smiles": "CCN(CC)C(=O)c1cccc(C)c1", "note": "[DEET]", "values": [{"measurement": "EC50", "setting": "MhOR5", "value": "MhOR5 was also activated by the insect repellent DEET"}]}
{"smiles": "CCc1ccc(NC(=O)CSc2nnc(-c3cccnc3)n2CC)cc1", "note": "[VUAA1]", "values": [{"measurement": "EC50", "setting": "Orco [1]", "value": 55.2, "unit": "µM"}]}
{"smiles": "CC(=O)c1ccccc1", "note": "[acetophenone]", "values": [{"measurement": "EC50", "setting": "Orco [2]", "value": "> 500", "unit": "µM"}]}
